# From patent publication US7557092B2, “Purinergic modulation of smell” (University of Utah Research Foundation, priority 2002, dated 2009)
# Where “and” joins values, the source holds several entries; their conditions need not be identical. Equal values may be shown once.
# Key:
# [1] = tested on: ORNs in neonatal mouse OE slices; assay: on-cell current-clamp recording of cyclic nucleotide-induced electrical responses; format: cell-based; details: 10 μM ATP co-applied with cyclic nucleotide mixture (IBMX, CPT-cAMP, 8-Br-cGMP), n=3 cells
# Protocol: Filled triangles correspond to the time of loop injection of the test solutions. […] Various test solutions were superfused onto the slice for 30 seconds, indicated by the shaded region. The cell was allowed to recover for 7 minutes after each test application. Note that the coapplication of ATP (10 μM) and the mixture suppressed the evoked membrane potential changes. […] N=3 from three slices, also indicated in each column.
# Electro-olfactogram and on-cell recordings: Slices of P0-P6 mouse OE were prepared as described above and mounted in a perfusion chamber with a bath flow of […]. Test chemicals were introduced using a rotary injection valve (Rheodyne, Cotati, Calif.). The electro-olfactogram (EOG) recording electrode (3 M NaCl in 1% agar; tip diameter, 5-10 um) was positioned along the dorsal portion of the nasal septum. The differential electrode (identical to the recording electrode) was positioned over skull cartilage and an […] ground electrode was connected to the bath solution via a 3 M KCl agar bridge. […]
# For the noninvasive on-cell recordings (Chiu et al., 1997), the same electronics were used as described for nystatin-patch experiments. […] The time course of solution delivery was determined by placing an electrode in a slice and switching from Ringer's solution to distilled water. […]
# [2] = tested on: ORNs in mouse olfactory epithelium slices; assay: confocal calcium imaging of fluo-4 AM loaded olfactory epithelium slices, ORNs; format: cell-based; details: 10 μM agonist superfused onto slice
# Source text: To study the effects of ATP on odor responses, acutely prepared slices of mouse olfactory epithelium were used. Confocal imaging of fluo-4 AM-loaded olfactory epithelium slices allows simultaneous recording from identified structures within the olfactory epithelium, i.e., both ORNs and sustentacular cells. […] The difference in robustness can be due to poor access to the ATP stimulus: odorant receptors are on the cilia of the ORNs, which extend beyond the outer edge of the olfactory epithelium, whereas purinergic receptors are located deeper within the olfactory epithelium. […] The latency of activation for the ATP-evoked calcium transient was shorter in the ORN (FIG. 3B2, solid up arrowhead) than in sustentacular cells (FIG. 3B3, open down arrowhead). Collectively, this was consistent with ORNs expressing the faster P2X receptors, and the sustentacular cells expressing the slower G-protein coupled P2Y receptors.
# To prepare olfactory epithelium slices, neonatal mice (postnatal day 0-6) were quickly decapitated, and the skin and lower jaw were removed. Tissue was mounted in ice cold Ringers onto a vibratome-cutting block and 300 μm slices were made. Primary cultures of mouse ORNs were made using the same protocol and culture conditions as described for rat olfactory receptor neurons (Vargas and Lucero, 1999a). Briefly, tissue was placed in divalent cation-free Ringers containing 10 mg/ml bovine serum albumin, 1 mg/ml deoxyribonuclease II and 44 U/ml dispase, incubated at 37° C. for 45 min. The tissue was washed, triturated, and filtered through a […] mesh and […] cells were plated onto concanavalin A-coated coverslips and allowed to settle for 20 min. An additional 1.5 ml of culture medium was added (DMEM supplemented with […] ascorbic acid, 1X insulin-transferrin-seleniumX (GIBCO BRL), 2 mM glutamine, 100 U/ml penicillin G and […] streptomycin).
# [Ca^2+]i was determined using confocal imaging of fluo-4 AM (18 μM; Molecular Probes) loaded cells and slices. Cells or slices were placed in a laminar flow chamber (Warner Instruments) and perfused continuously with Ringers solution at a flow rate of 1.5-2.0 ml/min. Ringers contained (mM): 140 NaCl, 5 KCl, 1 MgCl2, 2 CaCl2, 10 HEPES, 10 glucose, […] and 400 nM tetrodotoxin. Test solutions were applied using bath exchange and a small volume loop injector (200 μl). A Zeiss LSM 510 confocal laser scanning system was used for data collection and analysis. Time series experiments were performed collecting 1400×700 pixel images at 0.2-0.4 Hz. The fluorometric signals obtained are expressed as relative fluorescence change, ΔF/F═(F−F0)/F0, where F0 is the basal fluorescence level. Increases in F greater than 10% above baseline noise were considered responses.
# [3] = target: P2Y4 (Homo sapiens, UniProt P51582); details: cDNA from Human chromosome X; cited from earlier work
# P2Y4, sequence (P51582 whole entry): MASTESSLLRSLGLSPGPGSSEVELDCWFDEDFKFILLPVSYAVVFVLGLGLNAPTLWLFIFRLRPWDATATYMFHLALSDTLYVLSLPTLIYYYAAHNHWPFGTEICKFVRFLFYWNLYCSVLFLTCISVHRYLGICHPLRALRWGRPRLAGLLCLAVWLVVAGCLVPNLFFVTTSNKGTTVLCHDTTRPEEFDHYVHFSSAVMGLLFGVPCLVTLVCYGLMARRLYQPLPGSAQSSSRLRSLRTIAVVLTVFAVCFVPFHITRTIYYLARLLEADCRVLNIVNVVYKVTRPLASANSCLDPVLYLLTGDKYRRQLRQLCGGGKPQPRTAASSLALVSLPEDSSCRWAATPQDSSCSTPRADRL
# [4] = tested on: odor responses of mouse ORNs in olfactory epithelium slices; assay: co-application of odor and purinergic receptor agonist, calcium transients in olfactory epithelium slices; format: cell-based
# [5] = tested on: cultured mouse ORNs; assay: confocal calcium imaging of fluo-4 AM loaded cultured ORNs; format: cell-based
smiles,measurement,setting,value
"Nc1ncnc2c1ncn2[C@@H]1O[C@H](COP(=O)(O)OP(=O)(O)OP(=O)(O)O)[C@@H](O)[C@H]1O [ATP, Adenosine 5′-triphosphate]",reduction of the electrical activity of the ORN,[1],67±2%
same,agonist-evoked calcium transients in ORNs,[2],evoked calcium transients from all 11 ORNs
same,Agonist activity,[3],UTP > UDP (ATP inactive)
same,odor-responsive cells with a significant decrease in the summed [Ca2+]i increase,[4]; co-application of 10 μM ATP and odor (10 μM n-amyl acetate+10 μM R-carvone),62%
same,mean suppression of the summed [Ca2+]i increase,"[4]; co-application of 10 μM ATP and odor, n=26",57±5% and 57%±5%
same,mean enhancement of evoked [Ca2+]i increase,"[4]; co-application of 10 μM ATP and odor, the two ORNs with >20% increase",157±34%
same,"ATP-induced rise in [Ca2+]i in the absence of external Ca2+, larger than in the presence of Ca2+","[5]; 10 μM ATP, 0 Ca2+ + EGTA",31±11%
same,"ΔF/F increase in [Ca2+]i, average","[5]; 10 μM ATP, n=76",151±12%
same,"ΔF/F increase in [Ca2+]i, range","[5]; 10 μM ATP, n=76",13-398%
same,EC50,"[5]; Mus musculus, averaged dose-response, maximum % ΔF/F relative to 10 μM ATP, n=58, read-out: EC50 of ATP-induced [Ca2+]i increases",1.6 µM
same,ORNs with rapid transient increase in [Ca2+]i,[5]; extracellularly applied ATP,76/84
